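Five concentrations, 48 hours, 96-well plates. The concentration for 50% growth inhibition is given as GI50.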 Activity calls are given as the source filed them. Cut-off read from the data, not from the text of the source: active = GI50 up to about 1.1 µM and inactive = higher.
Columns and labels:
Assay in all cases: growth of human tumour cells (NCI), 48 h
[1] = tested on: NCI-H23
[2] = tested on: SNB-75
[3] = tested on: UO-31
[4] = tested on: SN12C
[5] = tested on: SF-295
[6] = tested on: HCT-116
[7] = tested on: OVCAR-3
[8] = tested on: RXF 393
[9] = tested on: NCI-H460
[10] = tested on: LOX IMVI
[11] = tested on: OVCAR-8
[12] = tested on: Malme-3M
[13] = tested on: HL-60
[14] = tested on: SF-539
[15] = tested on: A549
[16] = tested on: M14
[17] = tested on: CAKI-1

Measured: GI50

Cc1ccc(-n2c(=S)[nH]c3ccc(Br)cc3c2=O)cc1
inactive: [1] > 100 µM | [2] > 100 µM | [3] > 100 µM | [4] > 100 µM | [5] > 100 µM | [6] > 100 µM | [7] > 100 µM | [8] > 100 µM | [9] > 100 µM | [10] > 100 µM | [11] > 100 µM | [12] > 100 µM | [13] > 100 µM | [14] > 100 µM | [15] > 100 µM

C=CC[P@]1(=O)O[C@H](c2ccccc2)C(C)N1C(C)C (some centres undefined)
inactive: [1] > 100 µM | [2] > 100 µM | [3] > 100 µM | [4] > 100 µM | [5] > 100 µM | [6] > 100 µM | [7] > 100 µM | [16] > 100 µM | [8] > 100 µM | [9] > 100 µM | [10] > 100 µM | [11] > 100 µM | [12] > 100 µM | [13] > 100 µM | [14] > 100 µM | [15] > 100 µM

O=C1C2c3[nH]c4ccccc4c3C3CCC(c4ccccc4)CC3C2C(=O)N1c1ccccc1 (centres undefined)
inactive: [1] > 100 µM | [2] 27.3 µM | [3] > 100 µM | [4] > 100 µM | [5] > 100 µM | [7] > 100 µM | [16] > 100 µM | [8] > 100 µM | [9] > 100 µM | [10] > 100 µM | [11] > 100 µM | [12] 36.8 µM | [13] 24.3 µM | [14] 97.7 µM | [15] > 100 µM

C=C1CC(C/C=C(\C)CC2CC(=C)C(=O)O2)OC1=O (centres undefined)
inactive: [1] > 100 µM | [2] > 100 µM | [17] > 100 µM | [3] > 100 µM | [4] > 100 µM | [5] > 100 µM | [6] > 100 µM | [7] > 100 µM | [16] > 100 µM | [8] > 100 µM | [9] > 100 µM | [10] > 100 µM | [11] > 100 µM | [12] > 100 µM | [13] > 100 µM | [14] > 100 µM | [15] > 100 µM

CC(C)=NNC(=S)NC12CC3CC(CC(C3)C1)C2
inactive: [1] > 100 µM | [2] > 100 µM | [17] > 100 µM | [3] > 100 µM | [4] > 100 µM | [5] > 100 µM | [6] > 100 µM | [7] > 100 µM | [16] > 100 µM | [8] > 100 µM | [9] > 100 µM | [10] > 100 µM | [11] > 100 µM | [13] > 100 µM | [14] > 100 µM | [15] > 100 µM

NS(=O)(=O)c1ccc(NC(=O)CC(=O)Nc2ccc(S(N)(=O)=O)cc2)cc1
inactive: [1] > 100 µM | [2] > 100 µM | [17] > 100 µM | [3] > 100 µM | [4] > 100 µM | [5] > 100 µM | [6] > 100 µM | [7] > 100 µM | [16] > 100 µM | [10] > 100 µM | [11] > 100 µM | [12] > 100 µM | [13] > 100 µM | [14] > 100 µM | [15] > 100 µM

O=C(CCc1nnc(S)[nH]1)Nc1ccc(Cl)c(Cl)c1
inactive: [1] 53.3 µM | [2] 20 µM | [17] > 100 µM | [3] 45.6 µM | [4] > 100 µM | [5] 50.6 µM | [6] 47 µM | [7] 40.6 µM | [16] 27.4 µM | [9] 90.8 µM | [11] > 100 µM | [12] > 100 µM | [13] 82.4 µM | [14] 62.5 µM | [15] 40.9 µM

CCOC(OC1=C(C#N)CCC1)C(C)[Se]c1ccccc1 (centres undefined)
inactive: [1] 12.9 µM | [2] 22.3 µM | [17] 59.7 µM | [3] 26.5 µM | [4] 14.7 µM | [5] 22.2 µM | [6] 18.8 µM | [7] 18.1 µM | [16] 16.1 µM | [8] 18 µM | [9] 36.4 µM | [10] 10 µM | [11] 18.7 µM | [12] 12.7 µM | [13] 21 µM | [14] 21.6 µM | [15] 67.8 µM

CC(C)(C)C[P+](C)(C)c1ccccc1
inactive: [1] > 100 µM | [2] > 100 µM | [17] > 100 µM | [3] > 100 µM | [4] > 100 µM | [5] > 100 µM | [6] > 100 µM | [7] 91.2 µM | [16] > 100 µM | [8] > 100 µM | [9] > 100 µM | [10] > 100 µM | [11] > 100 µM | [12] > 100 µM | [13] 67.1 µM | [14] > 100 µM | [15] 89.5 µM

COc1cc(CNc2nc3c(N)cc(C(F)(F)F)cc3nc2-c2ccccc2)cc(OC)c1OC
inactive: [1] 19 µM | [2] 89.3 µM | [17] > 10 µM | [3] 16.8 µM | [4] 70.3 µM | [5] 37.7 µM | [6] 19.7 µM | [7] 36.1 µM | [16] 47.1 µM | [8] 8.47 µM | [9] 25.9 µM | [10] 18.5 µM | [11] 71.1 µM | [12] 40 µM | [13] > 10 µM | [14] > 10 µM | [15] 19 µM

Cn1c2c(c3ccccc31)CCN(CCN1CCN(c3ccccc3)CC1)C2=O
inactive: [1] 33.5 µM | [17] > 100 µM | [3] > 100 µM | [4] > 100 µM | [5] > 100 µM | [6] 58.1 µM | [16] > 100 µM | [8] 26.7 µM | [9] > 100 µM | [10] > 100 µM | [11] > 100 µM | [13] > 100 µM | [14] 41.3 µM | [15] > 100 µM

CCN(CC)CC(=O)Nc1ccc2c(c1)C(=O)c1ccc(NC(=O)CN(CC)CC)cc1C2=O
inactive: [1] 77.6 µM | [2] 25.7 µM | [17] 70.1 µM | [3] > 100 µM | [4] 20.1 µM | [5] 39 µM | [6] 13.6 µM | [16] 19.7 µM | [8] 3.22 µM | [9] 14.1 µM | [10] 14.7 µM | [11] 29.5 µM | [13] 18.8 µM | [14] 16.3 µM | [15] 27.9 µM

C=CC(=O)NCNC(=O)C=C
inactive: [1] > 100 µM | [2] > 100 µM | [17] > 100 µM | [3] > 100 µM | [4] > 100 µM | [5] > 100 µM | [6] > 100 µM | [7] > 100 µM | [16] > 100 µM | [9] > 100 µM | [10] > 100 µM | [11] > 100 µM | [12] > 100 µM | [13] > 100 µM | [14] > 100 µM | [15] > 100 µM

Cc1cc(Cl)ccc1NC(=O)C(=O)Cc1ccc([N+](=O)[O-])c([N+](=O)[O-])c1CC(=O)C(=O)Nc1ccc(Cl)cc1C
inactive: [1] > 100 µM | [2] > 100 µM | [17] > 100 µM | [3] > 100 µM | [4] > 100 µM | [5] > 100 µM | [6] > 100 µM | [7] 70.3 µM | [16] > 100 µM | [8] > 100 µM | [9] > 100 µM | [10] > 100 µM | [11] > 100 µM | [12] > 100 µM | [13] > 100 µM | [14] 35 µM | [15] > 100 µM

CSc1cnc2ccccc2c1Sc1cn(C)c2ccccc2c1=O
inactive: [1] 19.5 µM | [2] 17 µM | [3] 25.5 µM | [4] 28.8 µM | [5] 22.6 µM | [6] 10.2 µM | [7] 28.7 µM | [16] > 100 µM | [8] 38.4 µM | [9] 13.2 µM | [10] 14.6 µM | [11] 18.5 µM | [12] > 100 µM | [13] 16 µM | [14] 29 µM | [15] 8.17 µM

CN1c2ccccc2N(C(=O)c2ccccc2)C(CC(=O)O)c2cccn21 (centres undefined)
inactive: [1] > 100 µM | [2] > 100 µM | [17] > 100 µM | [3] > 100 µM | [4] > 100 µM | [5] > 100 µM | [7] > 100 µM | [16] > 100 µM | [8] 43.1 µM | [9] > 100 µM | [10] > 100 µM | [11] > 100 µM | [12] > 100 µM | [13] > 100 µM | [14] > 100 µM | [15] > 100 µM

CCOC(=O)C1=C(C(=O)OCC)C2(c3ccccc3)N(O1)c1ccccc1C2(C)C (centres undefined)
inactive: [1] 30 µM | [2] 25.6 µM | [17] 26.7 µM | [3] 20.6 µM | [5] 45.5 µM | [6] 32.4 µM | [7] 46.9 µM | [16] 38.5 µM | [8] 46 µM | [9] 39.5 µM | [11] 48.3 µM | [12] 52.2 µM | [13] 22.7 µM | [14] 43.5 µM | [15] 45.5 µM
